Source: PubChem BioAssay AID330 (DTP/NCI, 2004)
Where “and” joins values, the source holds several entries; their conditions need not be identical. Identical values can stand only once. Inconclusive results and toxic doses are left out. The calls were made as follows: active = survival T/C of 150% or more; inactive = T/C below 125% in these data. Peptide text beside a SMILES is read from it. * marks the point of attachment. For = O=C*

Tested on: P388 leukemia ip, CD2F1 mice, survival T/C
Test: NCI In Vivo Anticancer Drug Screen. Data for tumor model P388 Leukemia (intraperitoneal) in CD2F1 (CDF1) mice
Details: endpoint: median survival time, higher = longer survival
Outline: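 Mice carrying the transplanted tumor received test compound or vehicle. Survival was recorded in each group, and the value is the treated-group measurement divided by that of the vehicle-treated control group.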

[1] = dose: 50.0 mg/kg/injection, schedule: Q01DX005 (ip), vehicle: Klucel (hydroxypropylcellulose) (HPC)
[2] = dose: 100.0 mg/kg/injection, schedule: Q01DX005 (ip), vehicle: Klucel (hydroxypropylcellulose) (HPC)
[3] = dose: 200.0 mg/kg/injection, schedule: Q01DX005 (ip), vehicle: Klucel (hydroxypropylcellulose) (HPC)
[4] = dose: 12.5 mg/kg/injection, schedule: Q01DX005 (ip), vehicle: Klucel (hydroxypropylcellulose) (HPC)
[5] = dose: 25.0 mg/kg/injection, schedule: Q01DX005 (ip), vehicle: Klucel (hydroxypropylcellulose) (HPC)
[6] = dose: 50.0 mg/kg/injection, schedule: Q01DX009 (ip), vehicle: Klucel (hydroxypropylcellulose) (HPC)
[7] = dose: 100.0 mg/kg/injection, schedule: Q01DX009 (ip), vehicle: Klucel (hydroxypropylcellulose) (HPC)
[8] = dose: 60.0 mg/kg/injection, schedule: Q01DX005 (ip), vehicle: saline with Tween-80
[9] = dose: 120.0 mg/kg/injection, schedule: Q01DX005 (ip), vehicle: saline with Tween-80
[10] = dose: 240.0 mg/kg/injection, schedule: Q01DX005 (ip), vehicle: saline with Tween-80
[11] = dose: 60.0 mg/kg/injection, schedule: Q01DX005 (ip), vehicle: Klucel (hydroxypropylcellulose) (HPC)
[12] = dose: 120.0 mg/kg/injection, schedule: Q01DX005 (ip), vehicle: Klucel (hydroxypropylcellulose) (HPC)
[13] = dose: 240.0 mg/kg/injection, schedule: Q01DX005 (ip), vehicle: Klucel (hydroxypropylcellulose) (HPC)
[14] = dose: 100.0 mg/kg/injection, schedule: Q04DX003 (ip), vehicle: saline
[15] = dose: 200.0 mg/kg/injection, schedule: Q04DX003 (ip), vehicle: saline
[16] = dose: 400.0 mg/kg/injection, schedule: Q04DX003 (ip), vehicle: saline

Measured: T/C

Cc1cc(C)c(C#N)c(SC(C(=O)NC(C)(C)C)c2ccccc2)n1 (stereo unspecified)
inactive: [1] 88 % of control | [2] 87 % of control | [3] 87 % of control

CC1CCC(C(C)C)/C(=N/NC(=O)c2cccnc2)C1 (stereo unspecified)
inactive: [4] 100 % of control | [5] 104 % of control | [1] 100 % of control

C=C(Cl)C(=NC(C)(C)C)Nc1cccc(Cl)c1
inactive: dose: 6.25 mg/kg/injection, schedule: Q01DX005 (ip), vehicle: Klucel (hydroxypropylcellulose) (HPC) 112 % of control | [4] 114 % of control | [5] 112 % of control | [1] 105 % of control | [2] 115 % of control | [3] 118 % of control

CCOC(=O)CNC(=O)Nc1ccc(S(=O)(=O)Nc2nc(C)cc(C)n2)cc1
inactive: [6] 102 % of control | [7] 100 % of control | dose: 200.0 mg/kg/injection, schedule: Q01DX009 (ip), vehicle: Klucel (hydroxypropylcellulose) (HPC) 100 % of control

O=S(=O)(OCC(O)C1OCC(O)C1O)c1ccccc1 (stereo unspecified)
inactive: dose: 50.0 mg/kg/injection, schedule: Q01DX009 (ip), vehicle: saline 98 % of control | dose: 100.0 mg/kg/injection, schedule: Q01DX009 (ip), vehicle: saline 100 % of control | dose: 200.0 mg/kg/injection, schedule: Q01DX009 (ip), vehicle: saline 105 % of control

c1cc[n+](Cc2ccc3ccccc3c2)c(C2OCCO2)c1
inactive: dose: 5.0 mg/kg/injection, schedule: Q01DX009 (ip), vehicle: saline 100 % of control | dose: 10.0 mg/kg/injection, schedule: Q01DX009 (ip), vehicle: saline 100 % of control | dose: 20.0 mg/kg/injection, schedule: Q01DX009 (ip), vehicle: saline 104 % of control

CSC(=S)n1nc(-c2cccs2)c(N=Nc2ccc([N+](=O)[O-])cc2)c1C(F)(F)F
inactive: [8] 94 % of control | [9] 88 % of control | [10] 97 % of control

C[S+](C)CCCNC(=O)c1csc(-c2csc(-c3ccccc3)n2)n1
inactive: dose: 6.25 mg/kg/injection, schedule: Q01DX005 (ip), vehicle: water 100 % of control | dose: 12.5 mg/kg/injection, schedule: Q01DX005 (ip), vehicle: water 107 % of control | dose: 25.0 mg/kg/injection, schedule: Q01DX005 (ip), vehicle: water 106 % of control

COc1cccc2c1C(=O)c1c(O)c3c(c(O)c1C2=O)CC(O)(c1cscn1)CC3O (stereo unspecified)
inactive: dose: 1.56 mg/kg/injection, schedule: Q01DX009 (ip), vehicle: other 104 % of control | dose: 3.13 mg/kg/injection, schedule: Q01DX009 (ip), vehicle: other 107 % of control | dose: 6.25 mg/kg/injection, schedule: Q01DX009 (ip), vehicle: other 101 % of control | dose: 12.5 mg/kg/injection, schedule: Q01DX009 (ip), vehicle: other 105 % of control | dose: 25.0 mg/kg/injection, schedule: Q01DX009 (ip), vehicle: other 104 % of control | dose: 50.0 mg/kg/injection, schedule: Q01DX009 (ip), vehicle: other 113 % of control

O=C1CSC(=Nc2ccccc2F)N1c1ccccc1F
inactive: [6] 110 % of control | [7] 107 % of control

O=c1[nH]c(Cl)nc2nc(Cl)[nH]c12
inactive: [1] 100 % of control | [2] 101 % of control | [3] 100 % of control

O=[N+]([O-])c1ccc(Nc2cn[nH]n2)cc1
inactive: [11] 100 % of control | [12] 102 % of control | [13] 99 % of control

COc1cc2c(cc1O)C(=O)c1[nH]c3ccccc3c1CC2
inactive: [14] 107 % of control | [15] 107 % of control | [16] 101 % of control

O=C(Nc1n[nH]c(NC(=O)C(F)(F)F)n1)C(F)(F)F
inactive: [1] 103 % of control | [2] 103 % of control | [3] 100 % of control

NS(=O)(=O)c1cc2c(cc1Cl)NC=NS2(=O)=O
inactive: dose: 18.75 mg/kg/injection, schedule: Q01DX009 (ip), vehicle: Klucel (hydroxypropylcellulose) (HPC) 100 % of control and 103 % of control | dose: 37.5 mg/kg/injection, schedule: Q01DX009 (ip), vehicle: Klucel (hydroxypropylcellulose) (HPC) 104 % of control and 91 % of control | dose: 75.0 mg/kg/injection, schedule: Q01DX009 (ip), vehicle: Klucel (hydroxypropylcellulose) (HPC) 104 % of control and 89 % of control | dose: 150.0 mg/kg/injection, schedule: Q01DX009 (ip), vehicle: Klucel (hydroxypropylcellulose) (HPC) 104 % of control and 90 % of control | dose: 225.0 mg/kg/injection, schedule: Q01DX009 (ip), vehicle: Klucel (hydroxypropylcellulose) (HPC) 99 % of control and 100 % of control

CC(C)C(NC=O)C(=O)NCC(=O)NC(CO)C(=O)NC(CCC(=O)O)C(=O)O (stereo unspecified) (For-VGSE-OH; configuration not given here)
inactive: dose: 9.0 mg/kg/injection, schedule: Q01DX005 (ip), vehicle: water 110 % of control | dose: 18.0 mg/kg/injection, schedule: Q01DX005 (ip), vehicle: water 101 % of control | dose: 36.0 mg/kg/injection, schedule: Q01DX005 (ip), vehicle: water 110 % of control | dose: 72.0 mg/kg/injection, schedule: Q01DX005 (ip), vehicle: water 110 % of control | dose: 144.0 mg/kg/injection, schedule: Q01DX005 (ip), vehicle: water 106 % of control

COC(=O)C12CN(C)CC(C(=O)OC)(C1=O)C(c1ccccn1)N(C)C2c1ccccn1 (stereo unspecified)
inactive: [8] 100 % of control | [9] 98 % of control | [10] 98 % of control

CCC(=O)NCC(CN(C)C)(c1ccccc1)c1ccccc1
inactive: dose: 100.0 mg/kg/injection, schedule: Q01DX001 (ip), vehicle: saline with Tween-80 112 % of control | dose: 200.0 mg/kg/injection, schedule: Q01DX001 (ip), vehicle: saline with Tween-80 100 % of control

O=[N+]([O-])O.[Ga]
inactive: dose: 6.25 mg/kg/injection, schedule: Q01DX005 (ip), vehicle: saline 100 % of control | dose: 6.25 mg/kg/injection, schedule: Q01DX010 (ip), vehicle: saline 100 % of control | dose: 12.5 mg/kg/injection, schedule: Q01DX005 (iv), vehicle: saline 99 % of control | dose: 12.5 mg/kg/injection, schedule: Q01DX010 (ip), vehicle: saline 100 % of control | dose: 25.0 mg/kg/injection, schedule: Q01DX005 (ip), vehicle: saline 100 % of control and 123 % of control | dose: 25.0 mg/kg/injection, schedule: Q01DX005 (iv), vehicle: saline 96 % of control | dose: 25.0 mg/kg/injection, schedule: Q01DX010 (ip), vehicle: saline 118 % of control | dose: 50.0 mg/kg/injection, schedule: Q01DX005 (iv), vehicle: saline 98 % of control and 91 % of control | dose: 50.0 mg/kg/injection, schedule: Q01DX010 (ip), vehicle: saline 100 % of control

O=C(Cc1ccccn1)c1cccnc1
inactive: [14] 94 % of control | [15] 96 % of control | [16] 100 % of control

Cc1ccccc1C1OC2=C(Nc3ccc(Cl)cc3N2)C1=O (stereo unspecified)
inactive: [11] 101 % of control | [12] 91 % of control | [13] 101 % of control

COc1cccc(C=Nc2ccccc2O)c1O.[O]=[V]
inactive: dose: 6.25 mg/kg/injection, schedule: Q01DX009 (ip), vehicle: Klucel (hydroxypropylcellulose) (HPC) 98 % of control and 107 % of control | dose: 12.5 mg/kg/injection, schedule: Q01DX009 (ip), vehicle: Klucel (hydroxypropylcellulose) (HPC) 106 % of control and 115 % of control | dose: 25.0 mg/kg/injection, schedule: Q01DX009 (ip), vehicle: Klucel (hydroxypropylcellulose) (HPC) 100 % of control and 118 % of control | [6] 91 % of control
